This note sets out measurements from ChEMBL document CHEMBL4507291 (2021).

For orientation: inhibition means the relative decrease from the control value, in per cent.

Assay [1] has as its target TGF-beta receptor type-2 (Homo sapiens) (UniProt P37173).
Assay [2] has as its target Dual specificity protein kinase CLK4 (Homo sapiens) (UniProt Q9HAZ1).
The target in assay [3] is T1, Beta-adrenergic receptor kinase 1 (Homo sapiens) (UniProt P25098).
T1 sequence (whole entry): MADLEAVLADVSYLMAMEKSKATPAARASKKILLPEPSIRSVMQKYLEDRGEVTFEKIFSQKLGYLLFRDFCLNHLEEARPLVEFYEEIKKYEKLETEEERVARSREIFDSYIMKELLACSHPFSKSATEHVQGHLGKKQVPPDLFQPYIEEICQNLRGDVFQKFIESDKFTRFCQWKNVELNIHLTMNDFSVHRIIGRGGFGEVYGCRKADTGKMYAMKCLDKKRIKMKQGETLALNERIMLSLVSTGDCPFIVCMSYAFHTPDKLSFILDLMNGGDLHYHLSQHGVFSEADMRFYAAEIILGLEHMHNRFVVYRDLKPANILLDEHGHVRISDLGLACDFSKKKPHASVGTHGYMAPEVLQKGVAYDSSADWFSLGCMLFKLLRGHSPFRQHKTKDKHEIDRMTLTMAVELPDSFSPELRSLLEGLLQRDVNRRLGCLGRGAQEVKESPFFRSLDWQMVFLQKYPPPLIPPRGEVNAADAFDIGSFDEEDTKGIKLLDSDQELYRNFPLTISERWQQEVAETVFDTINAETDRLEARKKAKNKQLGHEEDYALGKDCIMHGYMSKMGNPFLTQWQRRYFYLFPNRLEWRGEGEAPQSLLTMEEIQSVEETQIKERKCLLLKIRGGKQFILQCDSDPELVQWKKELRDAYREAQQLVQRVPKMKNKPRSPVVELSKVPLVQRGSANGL

For assay [4], the target named is Vascular endothelial growth factor receptor 1 (Homo sapiens) (UniProt P17948).
Assay [5] concerns the target Phosphatidylinositol 5-phosphate 4-kinase type-2 gamma (Homo sapiens) (UniProt Q8TBX8).
In assay [6] the target is Sigma intracellular receptor 2 (Homo sapiens, UniProt Q5BJF2). The conditions noted are these: Compound concentration 10.0 uM.
Assay [7] addresses Dual specificity protein kinase CLK1 (Homo sapiens) (UniProt P49759).
In assay [8] the test system is Mast/stem cell growth factor receptor Kit (Homo sapiens), P10721 [V559D].
Assay [9] deals with 1-phosphatidylinositol 3-phosphate 5-kinase (Homo sapiens) (UniProt Q9Y2I7).
The target of assay [10] is Serine/threonine-protein kinase 32B (Homo sapiens) (UniProt Q9NY57).
In assay [11] the target is Serine/threonine-protein kinase OSR1 (Homo sapiens) (UniProt O95747).
Assay [12] has as its target Ephrin type-A receptor 5 (Homo sapiens) (UniProt P54756).
Assay [13] has as its target Histamine H1 receptor (Homo sapiens) (UniProt P35367). The conditions noted are these: Compound concentration 10.0 uM.
Assay [14] deals with Mitogen-activated protein kinase kinase kinase kinase 4 (Homo sapiens) (UniProt O95819).
Assay [15] addresses Calcium/calmodulin-dependent protein kinase type II subunit delta (Homo sapiens) (UniProt Q13557).
The target of assay [16] is Insulin receptor-related protein (Homo sapiens) (UniProt P14616).
Assay [17] deals with T2, Dual specificity mitogen-activated protein kinase kinase 3 (Homo sapiens) (UniProt P46734).
T2 sequence (whole entry): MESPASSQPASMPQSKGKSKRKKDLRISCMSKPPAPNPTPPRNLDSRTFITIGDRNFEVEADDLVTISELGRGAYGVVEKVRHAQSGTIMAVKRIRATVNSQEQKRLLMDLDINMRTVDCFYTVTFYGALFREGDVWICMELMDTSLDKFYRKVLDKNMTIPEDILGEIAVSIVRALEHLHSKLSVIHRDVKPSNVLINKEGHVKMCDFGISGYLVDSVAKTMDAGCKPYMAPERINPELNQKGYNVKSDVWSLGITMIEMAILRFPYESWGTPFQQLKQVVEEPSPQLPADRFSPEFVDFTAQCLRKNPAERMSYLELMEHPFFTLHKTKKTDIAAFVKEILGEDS

Assay [18] deals with Ribosomal protein S6 kinase alpha-1 (Homo sapiens) (UniProt Q15418).
The mark [19] stands for this setting: Compound concentration 100.0 nM.
The mark [20] stands for this setting: Compound concentration 1000.0 nM.

Structures are written as SMILES.

Calcium/calmodulin-dependent protein kinase type II subunit delta (Homo sapiens), sequence (Q13557 whole entry): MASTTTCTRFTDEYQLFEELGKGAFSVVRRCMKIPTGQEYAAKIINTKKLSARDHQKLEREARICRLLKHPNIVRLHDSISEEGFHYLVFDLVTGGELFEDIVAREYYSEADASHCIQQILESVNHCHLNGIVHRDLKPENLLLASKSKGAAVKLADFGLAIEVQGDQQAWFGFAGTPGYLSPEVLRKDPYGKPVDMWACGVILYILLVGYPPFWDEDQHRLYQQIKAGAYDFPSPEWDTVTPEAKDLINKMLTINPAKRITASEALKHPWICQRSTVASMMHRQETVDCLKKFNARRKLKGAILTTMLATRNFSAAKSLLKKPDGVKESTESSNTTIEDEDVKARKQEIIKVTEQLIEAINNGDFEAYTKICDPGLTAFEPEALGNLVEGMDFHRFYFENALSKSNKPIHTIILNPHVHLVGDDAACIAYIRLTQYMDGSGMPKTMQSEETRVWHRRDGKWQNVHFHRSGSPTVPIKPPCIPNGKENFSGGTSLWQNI
Serine/threonine-protein kinase OSR1 (Homo sapiens), sequence (O95747 2-527 limits assumed): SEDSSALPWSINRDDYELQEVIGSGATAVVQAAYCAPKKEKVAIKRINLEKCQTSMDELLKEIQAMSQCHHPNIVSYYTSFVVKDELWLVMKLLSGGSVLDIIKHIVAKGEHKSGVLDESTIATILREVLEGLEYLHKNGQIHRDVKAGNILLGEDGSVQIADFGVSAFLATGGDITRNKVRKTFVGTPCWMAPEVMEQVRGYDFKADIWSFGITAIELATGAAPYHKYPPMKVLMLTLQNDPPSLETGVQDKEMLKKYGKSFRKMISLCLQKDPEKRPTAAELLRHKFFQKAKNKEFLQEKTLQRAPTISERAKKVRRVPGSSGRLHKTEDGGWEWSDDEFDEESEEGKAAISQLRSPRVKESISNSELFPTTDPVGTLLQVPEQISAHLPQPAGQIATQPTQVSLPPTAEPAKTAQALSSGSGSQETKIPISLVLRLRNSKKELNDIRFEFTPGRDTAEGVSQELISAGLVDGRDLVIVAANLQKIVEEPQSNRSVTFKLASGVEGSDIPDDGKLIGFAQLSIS
1-phosphatidylinositol 3-phosphate 5-kinase (Homo sapiens), sequence (Q9Y2I7 whole entry): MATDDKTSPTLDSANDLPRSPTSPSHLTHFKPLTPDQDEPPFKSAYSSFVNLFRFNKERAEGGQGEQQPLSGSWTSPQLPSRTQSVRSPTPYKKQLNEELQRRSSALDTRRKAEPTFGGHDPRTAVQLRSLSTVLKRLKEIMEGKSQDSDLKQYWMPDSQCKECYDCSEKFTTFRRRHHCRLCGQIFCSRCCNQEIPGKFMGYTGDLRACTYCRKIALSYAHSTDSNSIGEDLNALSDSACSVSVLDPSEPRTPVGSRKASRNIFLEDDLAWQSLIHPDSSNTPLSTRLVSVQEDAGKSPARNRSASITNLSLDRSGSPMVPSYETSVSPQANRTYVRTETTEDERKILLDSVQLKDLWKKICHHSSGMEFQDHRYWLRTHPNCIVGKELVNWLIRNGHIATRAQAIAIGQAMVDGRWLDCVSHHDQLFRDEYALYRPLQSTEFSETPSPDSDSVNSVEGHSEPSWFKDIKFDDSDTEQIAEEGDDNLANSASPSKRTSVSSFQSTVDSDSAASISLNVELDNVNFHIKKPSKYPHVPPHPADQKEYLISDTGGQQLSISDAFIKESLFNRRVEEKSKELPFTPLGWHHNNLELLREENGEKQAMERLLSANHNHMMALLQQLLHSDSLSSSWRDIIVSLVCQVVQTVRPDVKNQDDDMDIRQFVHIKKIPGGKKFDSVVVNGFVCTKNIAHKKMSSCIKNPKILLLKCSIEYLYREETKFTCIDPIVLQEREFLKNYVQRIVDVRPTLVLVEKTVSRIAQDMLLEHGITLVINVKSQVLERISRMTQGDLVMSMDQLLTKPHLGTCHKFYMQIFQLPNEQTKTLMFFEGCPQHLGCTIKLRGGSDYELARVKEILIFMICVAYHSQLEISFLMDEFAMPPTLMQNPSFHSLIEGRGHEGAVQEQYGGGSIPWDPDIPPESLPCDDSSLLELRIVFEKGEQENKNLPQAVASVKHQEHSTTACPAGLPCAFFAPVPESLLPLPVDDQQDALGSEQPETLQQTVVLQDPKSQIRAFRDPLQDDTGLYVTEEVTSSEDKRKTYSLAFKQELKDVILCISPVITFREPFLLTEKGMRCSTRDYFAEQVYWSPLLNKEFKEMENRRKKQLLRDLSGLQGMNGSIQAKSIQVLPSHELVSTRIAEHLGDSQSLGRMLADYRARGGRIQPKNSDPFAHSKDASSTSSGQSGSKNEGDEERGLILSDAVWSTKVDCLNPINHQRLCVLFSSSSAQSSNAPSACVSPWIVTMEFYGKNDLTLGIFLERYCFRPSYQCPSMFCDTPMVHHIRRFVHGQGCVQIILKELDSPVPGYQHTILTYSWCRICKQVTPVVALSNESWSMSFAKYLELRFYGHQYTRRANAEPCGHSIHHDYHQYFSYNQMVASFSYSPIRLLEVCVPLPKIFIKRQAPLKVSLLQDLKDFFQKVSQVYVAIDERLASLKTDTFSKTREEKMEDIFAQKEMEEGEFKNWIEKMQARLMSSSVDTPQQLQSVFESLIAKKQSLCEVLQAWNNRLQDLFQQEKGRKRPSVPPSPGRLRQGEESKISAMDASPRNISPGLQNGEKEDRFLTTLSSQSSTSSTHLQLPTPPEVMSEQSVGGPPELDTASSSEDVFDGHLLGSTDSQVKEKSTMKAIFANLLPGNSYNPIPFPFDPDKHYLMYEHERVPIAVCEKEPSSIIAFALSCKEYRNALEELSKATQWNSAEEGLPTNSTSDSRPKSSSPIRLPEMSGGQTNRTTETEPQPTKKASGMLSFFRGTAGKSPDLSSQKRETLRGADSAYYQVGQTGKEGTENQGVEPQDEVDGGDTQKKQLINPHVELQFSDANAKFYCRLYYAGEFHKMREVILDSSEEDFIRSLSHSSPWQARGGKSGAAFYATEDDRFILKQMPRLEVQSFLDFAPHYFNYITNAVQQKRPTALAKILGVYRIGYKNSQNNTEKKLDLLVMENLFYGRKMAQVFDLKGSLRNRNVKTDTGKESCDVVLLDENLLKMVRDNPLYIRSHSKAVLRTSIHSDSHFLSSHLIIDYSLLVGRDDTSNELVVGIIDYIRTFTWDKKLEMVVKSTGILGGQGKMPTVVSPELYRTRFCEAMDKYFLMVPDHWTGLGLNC
Dual specificity protein kinase CLK1 (Homo sapiens), sequence (P49759 whole entry, looked up): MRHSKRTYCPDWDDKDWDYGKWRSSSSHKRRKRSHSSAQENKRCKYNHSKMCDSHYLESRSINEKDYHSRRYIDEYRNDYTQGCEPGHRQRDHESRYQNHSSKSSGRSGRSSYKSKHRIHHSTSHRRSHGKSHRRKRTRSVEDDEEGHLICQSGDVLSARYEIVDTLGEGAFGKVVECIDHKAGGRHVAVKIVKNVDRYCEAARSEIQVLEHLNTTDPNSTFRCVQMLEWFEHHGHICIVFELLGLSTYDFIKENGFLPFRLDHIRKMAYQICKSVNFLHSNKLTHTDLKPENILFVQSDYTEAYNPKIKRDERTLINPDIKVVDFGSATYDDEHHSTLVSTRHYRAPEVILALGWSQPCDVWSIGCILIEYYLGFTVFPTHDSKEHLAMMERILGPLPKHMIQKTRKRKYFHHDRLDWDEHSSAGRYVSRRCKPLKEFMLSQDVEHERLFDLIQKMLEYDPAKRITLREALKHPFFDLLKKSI
Sigma intracellular receptor 2, sequence (Q5BJF2 whole entry): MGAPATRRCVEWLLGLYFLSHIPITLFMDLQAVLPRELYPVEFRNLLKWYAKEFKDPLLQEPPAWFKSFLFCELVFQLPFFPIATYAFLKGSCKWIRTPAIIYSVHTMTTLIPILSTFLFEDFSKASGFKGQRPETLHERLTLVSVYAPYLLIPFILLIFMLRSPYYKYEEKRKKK
Ephrin type-A receptor 5 (Homo sapiens), sequence (P54756 whole entry): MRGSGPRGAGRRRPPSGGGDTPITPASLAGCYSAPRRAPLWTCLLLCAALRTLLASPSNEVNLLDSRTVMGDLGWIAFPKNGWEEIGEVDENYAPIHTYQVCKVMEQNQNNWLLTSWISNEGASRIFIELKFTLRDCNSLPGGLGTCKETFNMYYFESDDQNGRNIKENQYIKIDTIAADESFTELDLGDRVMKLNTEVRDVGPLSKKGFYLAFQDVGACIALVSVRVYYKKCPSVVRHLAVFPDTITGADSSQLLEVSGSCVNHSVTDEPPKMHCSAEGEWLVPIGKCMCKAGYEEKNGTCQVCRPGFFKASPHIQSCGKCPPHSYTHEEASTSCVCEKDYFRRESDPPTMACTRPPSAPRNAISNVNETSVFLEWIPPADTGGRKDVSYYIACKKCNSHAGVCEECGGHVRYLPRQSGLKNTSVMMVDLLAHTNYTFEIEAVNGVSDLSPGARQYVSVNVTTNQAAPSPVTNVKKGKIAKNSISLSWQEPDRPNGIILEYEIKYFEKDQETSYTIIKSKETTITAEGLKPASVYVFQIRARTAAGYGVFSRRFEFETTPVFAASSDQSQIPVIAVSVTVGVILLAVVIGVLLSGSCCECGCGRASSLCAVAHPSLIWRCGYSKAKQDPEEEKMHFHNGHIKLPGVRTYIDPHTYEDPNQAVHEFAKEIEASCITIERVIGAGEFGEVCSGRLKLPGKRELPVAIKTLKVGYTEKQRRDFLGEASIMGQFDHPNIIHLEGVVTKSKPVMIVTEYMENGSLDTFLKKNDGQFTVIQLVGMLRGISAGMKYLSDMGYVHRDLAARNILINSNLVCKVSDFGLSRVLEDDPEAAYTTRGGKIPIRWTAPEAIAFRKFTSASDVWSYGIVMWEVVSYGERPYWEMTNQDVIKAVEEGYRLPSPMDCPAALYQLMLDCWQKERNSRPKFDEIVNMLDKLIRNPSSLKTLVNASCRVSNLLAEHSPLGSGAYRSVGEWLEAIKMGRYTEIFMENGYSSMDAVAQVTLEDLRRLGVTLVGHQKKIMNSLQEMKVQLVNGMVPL

On to `C[C@@H]1CN(c2cc(-c3n[nH]c4ccc(OC5(C)CC5)cc34)ncn2)C[C@H](C)O1` [MLi-2], for which the residual activity is 100% in assay [1] (setting [19]); 87% in [2] (setting [19]); 86% in assay [3] (setting [19]); 100% in assay [4] (setting [19]); 90% in assay [5] (setting [19]); 86% in assay [7] (setting [19]). Further, the residual activity was 100% in assay [8] (setting [19]); 90% in [9] (setting [19]); 92% in assay [10] (setting [19]); 72% in assay [11] (setting [19]); 95% in [12] (setting [19]); 98% in assay [14] (setting [19]). Also, the residual activity in assay [15] (setting [19]) is 100%; in assay [16] (setting [19]) it was 57%; in [17] (setting [19]) it was 71%; in assay [18] (setting [19]), 93%. The inhibition in assay [6] was 50.4%; in assay [13] it was -6.46%.
Turning to `C[C@@H]1CN(c2cc(-c3nn(C)c4ccc(OC5(C)CC5)cc34)ncn2)C[C@H](C)O1` [MLi-2-NC], the residual activity is 73% in assay [1] (setting [20]); 100% in assay [2] (setting [20]); 68% in assay [3] (setting [20]); 95% in assay [4] (setting [20]); 98% in assay [5] (setting [20]); 86% in assay [7] (setting [20]). The residual activity was 100% in [8] (setting [20]); 78% in [9] (setting [20]); 100% in assay [10] (setting [20]); 93% in [11] (setting [20]); 100% in assay [12] (setting [20]); 100% in assay [14] (setting [20]). For the same compound, the residual activity in [15] (setting [20]) was 88%; in assay [16] (setting [20]) it was 91%; in assay [17] (setting [20]) it was 70%; in assay [18] (setting [20]), 100%. In addition, the inhibition was 90.4% in assay [6] and 11.9% in assay [13].
